From patent US12263248B2, “Compounds and compositions for intracellular delivery of therapeutic agents” (ModernaTX, Inc., priority 2018, dated 2025) come the findings set out here.

In data set [1] the test system is luciferase (Luc) mRNA. The data set is described as follows: Luc expression (total flux) after intramuscular administration. Type of data set: in vivo, mice. To be noted: 6 hours after intramuscular administration, Luc mRNA and H10 mRNA. The method, then: In order to monitor how effectively various nanoparticle compositions deliver therapeutic and/or prophylactics to targeted cells, different nanoparticle compositions including a particular therapeutic and/or prophylactic (for example, a modified or naturally occurring RNA such as an mRNA) are prepared and administered to rodent populations. Mice are intravenously, intramuscularly, intraarterially, or intratumorally administered a single dose including a nanoparticle composition with a formulation such as those provided in Example 3. In some instances, mice may be made to inhale doses. Dose sizes may range from 0.001 mg/kg to 10 mg/kg, where 10 mg/kg describes a dose including 10 mg of a therapeutic and/or prophylactic in a nanoparticle composition for each 1 kg of body mass of the mouse. A control composition including PBS may also be employed.
Sample formulations including both modified luciferase (Luc) mRNA and H10 mRNA were prepared and administered intramuscularly and the resulting expression and immunogenicity were evaluated simultaneously. Formulations including compounds according to Formula (I), (IA), (IB), (II), (IIa), (IIb), (IIc), (IId), (IIe), (IIf), (IIg), (III), (VI), (VI-a), (VII), (VIII), (VIIa), (VIIIa), (VIIIb), (VIIb-1), (VIIb-2), (VIIb-3), (VIIc), (VIId), (VIIIc), or (VIIId) were prepared and administered at doses of 0.001 and 0.01 mpk (e.g., doses of 0.0005 mpk of a formulation including Luc mRNA and a formulation including H10 mRNA or doses of 0.005 mpk of a formulation including Luc mRNA and a formulation including H10 mRNA).
Sample formulations including modified luciferase (Luc) mRNA prepared and administered intramuscularly and the resulting expression and immunogenicity were evaluated simultaneously. Formulations including compounds according to Formula (I), (IA), (IB), (II), (IIa), (IIb), (IIc), (IId), (IIe), (IIf), (IIg), (III), (VI), (VI-a), (VII), (VIII), (VIIa), (VIIIa), (VIIIb), (VIIb-1), (VIIb-2), (VIIb-3), (VIIc), (VIId), (VIIIc), or (VIIId) were prepared and administered at dose of and 0.01 mpk.

For data set [2], the system named is luciferase (Luc) mRNA. The data set is described as follows: Luc expression in liver, lung, spleen and femur 6 hours after intravenous administration. Type of data set: in vivo. To be noted: mice, 0.5 mpk; for Total Flux Liver / Total Flux Lung / Total Flux Spleen: intravenous. In outline:
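LNP-formulated mRNA given IV to mice (n=3) at 0.5 mpk; at 6 h, bioluminescence imaged ex vivo 15 min after IP D-luciferin (15 mg/mL, 200 μL), organs imaged within 25 min. Values are total flux by region of interest.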

Data set [3] relates to luciferase (Luc) mRNA. The experiment in a line: Luc expression, whole body bioluminescence after intravenous administration to mice. To be noted: for Fold increase in total body Luc Flux relative to MC3 at 6 h: Table 3A; for Fold increase in total body Luc Flux relative to MC3 at 6 h / 6 h Lipid/MC3 Avg. Luc Expression / Fold increase AUC Lipid/MC3 / AUC (h * p/s): i.v. administration; for Total Flux 3 hours / Total Flux 6 hours / Total Flux 24 hours / flux at all timepoints measured: mice, i.v., 0.5 mg/kg; for Total Flux 3 hours / Total Flux 6 hours / Total Flux 24 hours: Luc mRNA; for flux at all timepoints measured: 3, 6 and 24 hour, in words; for Lipid/MC3 AUC / AUC (p/s * h): Table 3D, intravenous; for AUC (p/s * h) / AUC (h * p/s): Luc; for 6 h Lipid/MC3 Avg. Luc Expression / Fold increase AUC Lipid/MC3 / AUC (h * p/s): Table 3C. Type of data set: in vivo. In outline: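 Luc mRNA nanoparticle formulations given intravenously to mice (n=6) at 0.5 mg/kg; whole-body bioluminescence imaged at 3, 6 and 24 h. CD-1 mice received IP D-luciferin (200 μL of 15 mg/mL) 15 min before imaging; total flux quantified by region of interest.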

Data set [4] is described as follows: Encapsulation efficiency of RNA (QUANT-IT RIBOGREEN RNA assay). The class given is physicochemical. As to conditions: Table 1A. The method, boiled down:
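RiboGreen fluorescence (ex ~480, em ~520 nm) compared between intact samples and Triton X-100-lysed samples after 15 min at 37 °C in TE buffer, pH 7.5. Percent free RNA is the blank-corrected intact/disrupted ratio.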

The nature of data set [5]: Particle size and polydispersity index of nanoparticle compositions (Zetasizer Nano ZS). Type of data set: physicochemical. As to conditions: Table 1A; for Size (nm): lipid:DSPC:cholesterol:PEG-DMG 50:10:38.5:1.5 mol %. In outline:
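Nanoparticle compositions are diluted in 1×PBS, then size and polydispersity index are read on a Zetasizer Nano ZS instrument.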

Data set [6] can be described thus: Apparent (surface) pKa of the LNP formulation (TNS assay). The class given is physicochemical. To be noted: Table 1A. In outline:
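LNP (0.04 mg/mL mRNA) mixed with TNS reagent in 21 buffers spanning about pH 3-12, in triplicate; fluorescence plotted against pH as sigmoidal curve. Apparent pKa taken as […] curve inflection point; validated in 1× PBS and 20 mM Tris w/8% sucrose.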

Bounds are passed on as bounds.

For `CCCCCCCCCOC(=O)CCCCCCCN(CCO)CCCCCCCC(=O)OC(CCCC)CCCC` [Compound 57, nonan-5-yl 8-((2-hydroxyethyl)(8-(nonyloxy)-8-oxooctyl)amino) octanoate], in data set [1] (0.001 mpk), the “Total flux, 0.001 mpk Dose” value amounted to 1.16E+05 p/s. Further, the “Total flux, 0.01 mpk Dose” value in data set [1] (0.01 mpk) is reported as 2.23E+05 p/s. Moreover, in data set [2], the “Total Flux Liver” value is reported as 9.36E+05, the “Total Flux Lung” value was 3.18E+04 and the “Total Flux Spleen” value is 2.47E+06. In data set [3], the “Fold increase in total body Luc Flux relative to MC3 at 6 h” value is 0.00056, the “Total Flux 3 hours” value came out at 6.69E+06, the “Total Flux 6 hours” value was found to be 6.21E+06 and the “Total Flux 24 hours” value worked out at 4.16E+05. In addition, the “flux at all timepoints measured” value in data set [3] is listed as “significantly lower flux”. For the same compound, in data set [4], the “EE (%)” value is given as 94.33%. Further, in data set [5], the PDI turned out to be 0.16 and the “Size (nm)” value was found to be 128.4 nm.
In the case of `CCCCCCCCCOC(=O)CCCCCCCN(CCO)CCCCCCCC(=O)OC(C)(C)C` [Compound 158, tert-Butyl 8-((2-hydroxyethyl)(8-(nonyloxy)-8-oxooctyl)amino)octanoate], in data set [2], the “Total Flux Liver” value was determined as 1.99E+05, the “Total Flux Lung” value was found to be 1.71E+04 and the “Total Flux Spleen” value is listed as 1.17E+05. Further, in data set [3], the “Lipid/MC3 AUC” value was <0.01, the “AUC (p/s * h)” value worked out at 1.211E+007 p/s * h, the “Total Flux 3 hours” value is on record as 2.69E+05 and the “Total Flux 6 hours” value worked out at 9.82E+05. In addition, in data set [3], the “Total Flux 24 hours” value is 1.55E+05 and the “flux at all timepoints measured” value was “significantly lower flux”. Moreover, the “EE (%)” value in data set [4] turned out to be 35.70%. Moreover, in data set [5], the PDI came out at 0.080 and the “Size (nm)” value is given as 251.8 nm. Also, in data set [6], the pKa is given as 6.953.
Consider `CCCCCCCCC(CCCCCC)C(=O)OCCCCCCCCCN(CCO)CCCCCCCCCOC(=O)C(CCCCCC)CCCCCCCC` (stereo not drawn) [Compound 133, ((2-Hydroxyethyl)azanediyl)bis(nonane-9,1-diyl) bis(2-hexyldecanoate)], for which, in data set [2], the “Total Flux Liver” value came out at 2.94E+09, the “Total Flux Lung” value is 3.18E+06 and the “Total Flux Spleen” value stood at 1.77E+07. Besides, in data set [3], the “6 h Lipid/MC3 Avg. Luc Expression” value is reported as 4.02, the “Fold increase AUC Lipid/MC3” value came out at 4.39, the “AUC (h * p/s)” value was 3.62E+11 h * p/s and the “Total Flux 3 hours” value was 3.32E+10. Further, in data set [3], the “Total Flux 6 hours” value is on record as 2.93E+10 and the “Total Flux 24 hours” value is listed as 4.74E+08. Besides, the “EE (%)” value in data set [4] was found to be 91.48%. Besides, in data set [5], the PDI came out at 0.098 and the “Size (nm)” value was found to be 66.0 nm. For the same compound, in data set [6], the pKa worked out at 6.38.
Turning to `CCCCCCCCCOC(=O)CCCCCCCN(CCCCCCCC(=O)OC(CCCCCCCC)CCCCCCCC)CCOCCO` [Compound 154, Heptadecan-9-yl 8-((2-(2-hydroxyethoxy)ethyl)(8-(nonyloxy)-8-oxooctylamino octanoate], in data set [2], the “Total Flux Liver” value amounted to 3.62E+08, the “Total Flux Lung” value was 2.89E+06 and the “Total Flux Spleen” value is listed as 1.30E+07. For the same compound, in data set [3], the “Lipid/MC3 AUC” value amounted to 0.29, the “AUC (p/s * h)” value came to 5.560E+010 p/s * h, the “Total Flux 3 hours” value stood at 2.49E+09 and the “Total Flux 6 hours” value is given as 4.89E+09. Further, the “Total Flux 24 hours” value in data set [3] is 6.26E+07. Also, in data set [4], the “EE (%)” value is 94.28%. Further, in data set [5], the PDI amounted to 0.110 and the “Size (nm)” value is listed as 92.9 nm. For the same compound, the pKa in data set [6] worked out at 6.827.
As for `CCCCCCCCC(CCCCCCCC)OC(=O)CCCCCCCN(C)CCCCCCCCCC(=O)OCCCCCCC` [Compound 149, Heptyl 10-((8-(heptadecan-9-yloxy)-8-oxooctyl)(methyl)amino)decanoate], in data set [2], the “Total Flux Liver” value is 1.11E+09, the “Total Flux Lung” value is recorded as 2.69E+06 and the “Total Flux Spleen” value is given as 2.71E+07. Also, in data set [3], the “Lipid/MC3 AUC” value is 0.55, the “AUC (p/s * h)” value amounted to 1.057E+011 p/s * h, the “Total Flux 3 hours” value turned out to be 1.01E+10 and the “Total Flux 6 hours” value was determined as 8.33E+09. The “Total Flux 24 hours” value in data set [3] was determined as 3.45E+08. Besides, the “EE (%)” value in data set [4] is 98.00%. Besides, in data set [5], the PDI came to 0.110 and the “Size (nm)” value was 62.1 nm. Besides, the pKa in data set [6] worked out at 6.284.
In the case of `CCCCCCCCCOC(=O)CCCCCCCN(CCO)CCCCCCCC(=O)OC1CCC(CCCCC)CC1` (stereo not drawn) [Compound 79, Nonyl 8-((2-hydroxyethyl)(8-oxo-8-((4-pentylcyclohexyl)oxy)octyl)amino)octanoate], in data set [2], the “Total Flux Liver” value stood at 3.15E+06, the “Total Flux Lung” value was determined as 6.13E+04 and the “Total Flux Spleen” value was 6.45E+05. Besides, in data set [3], the “Total Flux 3 hours” value is 3.23E+08, the “Total Flux 6 hours” value was 5.27E+08 and the “Total Flux 24 hours” value is reported as 3.08E+07. For the same compound, in data set [4], the “EE (%)” value turned out to be 89.1%. Besides, in data set [5], the PDI amounted to 0.18 and the “Size (nm)” value came to 93.7 nm. The pKa in data set [6] was found to be 7.53.
In the case of `CCCCCCCCC(CCCCCCCC)OC(=O)CCCCCCCN(CCO)CCCCCCCC(=O)N(C)CCCCCCCC` [Compound 145, Heptadecan-9-yl 8-((2-hydroxyethyl)(8-(methyl(octyl)amino)-8-oxooctyl)amino)octanoate], in data set [2], the “Total Flux Liver” value is listed as 5.01E+08, the “Total Flux Lung” value is 1.36E+07 and the “Total Flux Spleen” value was determined as 4.25E+08. Also, in data set [3], the “6 h Lipid/MC3 Avg. Luc Expression” value came out at 0.89, the “Fold increase AUC Lipid/MC3” value is 0.983, the “AUC (h * p/s)” value turned out to be 8.1E+10 h * p/s and the “Total Flux 3 hours” value is given as 7.11E+09. Besides, in data set [3], the “Total Flux 6 hours” value is reported as 6.50E+09 and the “Total Flux 24 hours” value was 2.38E+08. Besides, the “EE (%)” value in data set [4] came out at 89.15%. Further, in data set [5], the PDI amounted to 0.140 and the “Size (nm)” value amounted to 176.5 nm. Further, the pKa in data set [6] is listed as 7.25.
Consider `CCCCCCCCCOC(=O)CCCCCCCN(CCO)CCCCCCCC(=O)OC(CCCCC)CCCCCCCC` (stereo not drawn) [Compound 33, nonyl 8-((2-hydroxyethyl)(8-oxo-8-(tetradecan-6-yloxy)octyl)amino) octanoate], for which, in data set [2] (i.v., in words), the “Flux in the liver” value is given as “highest” and the “Flux in the spleen” value was “highest”. Moreover, in data set [2], the “Total Flux Liver” value is 1.78E+10, the “Total Flux Lung” value came out at 2.92E+07 and the “Total Flux Spleen” value was 3.77E+08. Also, in data set [3], the “Fold increase in total body Luc Flux relative to MC3 at 6 h” value worked out at 2.74, the “Total Flux 3 hours” value was 6.53E+10, the “Total Flux 6 hours” value came to 1.20E+11 and the “Total Flux 24 hours” value is 3.71E+09. Moreover, the “EE (%)” value in data set [4] came out at 95.66%. In addition, in data set [5], the PDI came out at 0.13 and the “Size (nm)” value was 107.3 nm. Further, the pKa in data set [6] is given as 6.80.
